Source: the supplement of paper PMC11208160

Test: recombinant barcode read abundance after kanamycin selection (control-corrected) (log10(CPM+1)); higher = more efficient recombination; sequences stand for … in AGTGCAGAGAAAATCGGCCAGTTTTCTCTGCCTGCAGTCCGCATGCCGT…AGATTTATGCAGCGGACTGCCTTTCTCCCAAAGTGATAAACCGGACAGTATCATGGACCGGTTTTCCCGGTAATCCGTATTTGCAAGGTTGGTTTCACT; site = the 11-nt target
In short: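 Two replicates per condition were plated: chloramphenicol/ampicillin LB agar for the control, and chloramphenicol/ampicillin/kanamycin with 0.1 mM IPTG for selection. The pooled E. coli screen behind them paired targets with IS621 bridge RNA target-binding loops. Recombination efficiency is expressed from averaged, control-corrected barcode counts per million at recombinant junctions, as log10(CPM+1).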
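Also: IS621 recombinase and bridge RNA in Escherichia coli cells.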

Point of comparison: “GGTACTACTTGGGTTCTAACCTGTTGCAT (site GGTACTACTAT)”, “recombinant barcode read abundance (log10)” value 0.54. Against it:
- GGGTCGGCTTGGGTTCTAACCTGTTGCGT (site GGGTCGGCTGC) — within 0.2 log units, 0.347
- GGGTCGGCTTGGGTTCTAACCTGTTGCGT (site GGGTCGGCTTC) — lower, 0.0402
- GGGTCTTCTTGGGTTCTAACCTGTTGCAT (site GGGACTTCTAT) — lower, 0.0343
- GGGTCTTCTTGGGTTCTAACCTGTTGCAT (site GGGCCTTCTAT) — lower, 0.152
- GGGTCTTCTTGGGTTCTAACCTGTTGCAT (site GGGGCTTCTAT) — lower, 0.0588
- GGGTCTTCTTGGGTTCTAACCTGTTGCAT (site GGGTCTTCTAT) — within 0.2 log units, 0.575
- GGGTTTGCTTGGGTTCTAACCTGTTGCCT (site GAGTTTGCTAG) — lower, 0
- GGGTTTGCTTGGGTTCTAACCTGTTGCCT (site GCGTTTGCTAG) — lower, 0.0869
- GGGTTTGCTTGGGTTCTAACCTGTTGCCT (site GGGTTTGCTAG) — higher, 1.14
- GGGTTTGCTTGGGTTCTAACCTGTTGCCT (site GTGTTTGCTAG) — within 0.2 log units, 0.667
- GGTACTACTTGGGTTCTAACCTGTTGCAT (site CGTACTACTGT) — lower, 0.0302
- GGTAGATCTTGGGTTCTAACCTGTTGCTT (site GGTAGATCTAA) — within 0.2 log units, 0.599
- GGTAGATCTTGGGTTCTAACCTGTTGCTT (site GGTAGGCCTAA) — lower, 0.0553
- GGTCAAACTTGGGTTCTAACCTGTTGCCT (site GGTCAAACTAG) — within 0.2 log units, 0.492
- GGTCAAACTTGGGTTCTAACCTGTTGCCT (site GGTCCAACTAG) — lower, 0.0951
- GGTCAAACTTGGGTTCTAACCTGTTGCCT (site GGTCGAACTAG) — lower, 0.109
- GGTCAAACTTGGGTTCTAACCTGTTGCCT (site GGTCTAACTAG) — lower, 0.0309
- GGTCAACCTTGGGTTCTAACCTGTTGCGG (site GGTCAACCTCC) — higher, 2.5
- GGTCAACCTTGGGTTCTAACCTGTTGCGG (site TACTCTTCTAG) — lower, 0.113
- GGTCATACTTGGGTTCTAACCTGTTGCCT (site GGTCATACTAG) — within 0.2 log units, 0.455
- GGTCATACTTGGGTTCTAACCTGTTGCCT (site GGTCATCCTAG) — lower, 0.0309
- GGTCATACTTGGGTTCTAACCTGTTGCCT (site GGTCATGCTAG) — lower, 0.074
- GGTCATACTTGGGTTCTAACCTGTTGCCT (site GGTCATTCTAG) — lower, 0.246
- GGTCCTCCTTGGGTTCTAACCTGTTGCGA (site GGTCCTCCTTC) — higher, 0.847
- GGTCCTCCTTGGGTTCTAACCTGTTGCGA (site TCCTAGTCTCT) — lower, 0.229
- GGTCGCGCTTGGGTTCTAACCTGTTGCCT (site GGTCGAGCTAG) — lower, 0.113
- GGTCGCGCTTGGGTTCTAACCTGTTGCCT (site GGTCGCGCTAG) — within 0.2 log units, 0.535
- GGTCGCGCTTGGGTTCTAACCTGTTGCCT (site GGTCGGGCTAG) — higher, 0.832
- GGTCGCGCTTGGGTTCTAACCTGTTGCCT (site GGTCGTGCTAG) — lower, 0.0211
- GGTGACCCTTGGGTTCTAACCTGTTGCAT (site GGTGACCCTAT) — higher, 2.75
- GGTGACCCTTGGGTTCTAACCTGTTGCAT (site TCGTGAGCTCA) — higher, 0.97
- GGTGACCCTTGGGTTCTAACCTGTTGCGG (site GGTAACCCTCC) — higher, 2.05
- GGTGACCCTTGGGTTCTAACCTGTTGCGG (site GGTCACCCTCC) — lower, 0.224
- GGTGACCCTTGGGTTCTAACCTGTTGCGG (site GGTGACCCTCC) — higher, 2.73
- GGTGACCCTTGGGTTCTAACCTGTTGCGG (site GGTTACCCTCC) — lower, 0.33
- GGTGCTCCTTGGGTTCTAACCTGTTGCTT (site ATTGCTCCTAA) — lower, 0.135
- GGTGCTCCTTGGGTTCTAACCTGTTGCTT (site GGTGCTCCTAA) — lower, 0.0711
- GGTGGGTCTTGGGTTCTAACCTGTTGCTT (site GGTGGGTCTAA) — higher, 1.9
- GGTGGGTCTTGGGTTCTAACCTGTTGCTT (site GGTGGGTCTAC) — within 0.2 log units, 0.663
- GGTGGGTCTTGGGTTCTAACCTGTTGCTT (site GGTGGGTCTAG) — higher, 0.929
- GGTGGGTCTTGGGTTCTAACCTGTTGCTT (site GGTGGGTCTAT) — higher, 1.69
- GGTTAGCCTTGGGTTCTAACCTGTTGCCT (site GGTTAGCCTAG) — within 0.2 log units, 0.579
- GGTTAGCCTTGGGTTCTAACCTGTTGCCT (site TGTTAGCCTTG) — lower, 0.0783
- GGTTATCCTTGGGTTCTAACCTGTTGCGG (site GGTTATCCTCC) — higher, 1.17
- GGTTATCCTTGGGTTCTAACCTGTTGCGG (site TTACGCTCTTA) — lower, 0.0896
- GGTTCACCTTGGGTTCTAACCTGTTGCAG (site GGTTCACCTCT) — higher, 1.05
- GGTTCACCTTGGGTTCTAACCTGTTGCAG (site GGTTGACCTAT) — lower, 0.0489
- GGTTGAACTTGGGTTCTAACCTGTTGCAT (site GCTTGAACTAA) — lower, 0.128
- GGTTGAACTTGGGTTCTAACCTGTTGCAT (site GGTTGAACTAT) — lower, 0.0521
- GGTTGCACTTGGGTTCTAACCTGTTGCCT (site AGTTGCTCTAG) — lower, 0.189
- GGTTGCACTTGGGTTCTAACCTGTTGCCT (site GGTTGCACTAG) — within 0.2 log units, 0.4
- GTAAACTCTTGGGTTCTAACCTGTTGCCT (site GTAAACTCTAG) — higher, 1.98
- GTAAACTCTTGGGTTCTAACCTGTTGCCT (site GTCAACTCTAG) — lower, 0.0684
- GTAAACTCTTGGGTTCTAACCTGTTGCCT (site GTGAACTCTAG) — lower, 0.0821
- GTAAACTCTTGGGTTCTAACCTGTTGCCT (site GTTAACTCTAG) — within 0.2 log units, 0.427
- GTAAAGTCTTGGGTTCTAACCTGTTGCCA (site CTAAAGTCTTG) — lower, 0.0579
- GTAAAGTCTTGGGTTCTAACCTGTTGCCA (site GTAAAGTCTTG) — lower, 0.276
- GTAAATCCTTGGGTTCTAACCTGTTGCCT (site ATAAATCCTAG) — lower, 0.141
- GTAAATCCTTGGGTTCTAACCTGTTGCCT (site CTAAATCCTAG) — lower, 0.222
- GTAAATCCTTGGGTTCTAACCTGTTGCCT (site GTAAATCCTAG) — higher, 1.01
- GTAAATCCTTGGGTTCTAACCTGTTGCCT (site TTAAATCCTAG) — lower, 0.132
- GTAAATGCTTGGGTTCTAACCTGTTGCCT (site GTAAATGCTAG) — higher, 1.36
- GTAAATGCTTGGGTTCTAACCTGTTGCCT (site GTAACTGCTAG) — lower, 0.0397
- GTAAATGCTTGGGTTCTAACCTGTTGCCT (site GTAAGTGCTAG) — lower, 0.0927
- GTAAATGCTTGGGTTCTAACCTGTTGCCT (site GTAATTGCTAG) — lower, 0.0782
- GTAACCGCTTGGGTTCTAACCTGTTGCCT (site GTAACCGCTAG) — higher, 1.64
- GTAACCGCTTGGGTTCTAACCTGTTGCCT (site GTCACCGCTAG) — lower, 0.228
- GTAACCGCTTGGGTTCTAACCTGTTGCCT (site GTGACCGCTAG) — lower, 0.115
- GTAACCGCTTGGGTTCTAACCTGTTGCCT (site GTTACCGCTAG) — within 0.2 log units, 0.432
- GTAACCTCTTGGGTTCTAACCTGTTGCCA (site GTAACCTCTAG) — higher, 0.904
- GTAACCTCTTGGGTTCTAACCTGTTGCCA (site GTAACCTCTCG) — lower, 0
- GTAACCTCTTGGGTTCTAACCTGTTGCCA (site GTAACCTCTGG) — lower, 0.0508
- GTAACCTCTTGGGTTCTAACCTGTTGCCA (site GTAACCTCTTG) — higher, 0.983
- GTAACCTCTTGGGTTCTAACCTGTTGCCG (site GTAACCTCTAG) — higher, 0.861
- GTAACCTCTTGGGTTCTAACCTGTTGCCG (site GTAACCTCTCG) — higher, 1.48
- GTAACCTCTTGGGTTCTAACCTGTTGCCG (site GTAACCTCTGG) — lower, 0.0296
- GTAACCTCTTGGGTTCTAACCTGTTGCCG (site GTAACCTCTTG) — lower, 0.0357
- GTAAGATCTTGGGTTCTAACCTGTTGCAC (site AGGCCCGCTCC) — lower, 0.0896
- GTAAGATCTTGGGTTCTAACCTGTTGCAC (site GTAAGATCTGT) — higher, 2.12
- GTAAGTACTTGGGTTCTAACCTGTTGCTT (site GTAAGAACTAA) — lower, 0.169
- GTAAGTACTTGGGTTCTAACCTGTTGCTT (site GTAAGCACTAA) — lower, 0.233
- GTAAGTACTTGGGTTCTAACCTGTTGCTT (site GTAAGGACTAA) — lower, 0.159
- GTAAGTACTTGGGTTCTAACCTGTTGCTT (site GTAAGTACTAA) — lower, 0.221
- GTAAGTCCTTGGGTTCTAACCTGTTGCGA (site GTAAGTCCTTC) — higher, 2.14
- GTAAGTCCTTGGGTTCTAACCTGTTGCGA (site GTGAGTCCTCC) — lower, 0.0113
